# Measurements: patent US5068247A, “2-aminopentanoic acid compounds and their use as immunosuppressants” (priority 1989, dated 1991)
# Legend:
# [1] = tested on: allo-reactive cytotoxic T cell (EL4 target cells); assay: suppression of induction of allo-reactive cytotoxic T cell in mouse allogenic mixed lymphocyte culture (MLC), 51Cr release; format: cell-based
# Protocol: The target cells used were leukemia cells EL4 from the syngenic (H-2^b) C57BL/6 mouse as used for preparation of the stimulator cells. By incubating 10^6 EL4 cells in the presence of 370 KBq of Na2^51 CrO4 at 37° C. for 1 hour, ^51 Cr was incorporated into the cytoplasm. The cells were washed, adjusted to the concentration of 10^4 cells/ml and used as the target cells.
# For the assay of the cytotoxic activity, 100 μl of the effector cell suspension and 100 μl of the target cell suspension were added to a 96-well flat-bottomed microculture plate, and cultured at 37° C. for 4 hours. The amount of ^51 Cr released into the supernatant was determined and the cytotoxic activity was calculated by the following formula. [formula]
# The activity of the cytotoxic T cell is expressed by LU (lytic unit) per 10^6 effector cells.
# [2] = tested on: IL-2 production in mouse allogenic MLC; assay: suppression of IL-2 production in mouse allogenic MLC; format: cell-based
# Protocol: (§1) Mouse allogenic MLC was carried out as follows:
# (§2) After termination of culture, the supernatant was collected and used as the supernatant of mouse allogenic MLC.
# The IL-2 and IL-3 activities in the supernatant of mouse allogenic MLC were assayed in the same way as in Experiment Example 4.
# [3] = tested on: IL-3 production in mouse allogenic MLC; assay: suppression of IL-3 production in mouse allogenic MLC; format: cell-based
# Protocol: as §1, §2
# [4] = tested on: allo-specific cytotoxic antibody in serum of EL4-immunized BALB/c mice; assay: suppression of allo-specific cytotoxic antibody production induced by allogenic cell immunization of mouse; format: in vivo
# Protocol: Male 5- to 7-week-old BALB/c mice were immunized with leukemia cell EL4 derived from C57BL/6 mice (10^7 cells/mouse, intraperitoneal administration) in the same way as in Experiment Example 9, and the […] Nine to ten days after immunization, a serum was collected from the mice. Fifty μl of the two-fold serial dilution of the serum, 50 μl of a guinea pig complement and EL4 cell suspension labelled with ^51 Cr as the target cell (5×10^4 cells/ml, 100 μl) were together added to a 96-well microtest plate. After incubation at 37° C. for 1 hour, the amount of ^51 Cr released in the supernatant was measured, and the complement-dependent cytotoxicity was calculated by the following formula. [formula]
# The value of allo-specific cytotoxic antibody determined as above was expressed by the titer calculated on the basis of the concentration at which the releasing amount of ^51 Cr was 50% of that of ^51 Cr-labelled target cells treated with 0.1 N HCl.
# [5] = cytotoxicity to cultured tumor cell line U937; format: cell-based, human; conditions: human, u937 cells; 0.1 μg/ml; read-out: Suppression
# Protocol: (§3) Cytotoxicity to various human tumor cell lines was examined as follows:
# (§4) Cells of human cell lines, K562, MOLT4, U937 and HL60 were respectively suspended to the concentration of 4×10^5 cells/ml in the RPMI1640 culture medium supplemented with 20% FCS. Fifty μl of each suspension was added to each well of a 96-well microtest plate to which 50 μl of the test solution had been added. After culturing the suspension at 37° C. in an atmosphere of 5% carbon dioxide for 72 hours, the absorbancy at 570 nm was measured in the same way as with the colorimetry using MTT in Experiment Example 1, and the percent suppression was calculated by the following formula, which was used as an index of cytotoxicity.
# [6] = tested on: U937; assay: cytotoxicity to cultured tumor cell line U937; format: cell-based, human
# Protocol: as §3, §4
# [7] = cytotoxicity to cultured tumor cell line HL60; conditions: human, hl60 cells, Suppression
# Protocol: as §3, §4
# [8] = tested on: HL60; assay: cytotoxicity to cultured tumor cell line HL60
# Protocol: as §3, §4
# [9] = Mus musculus, 48 h, 0.0001 μg/ml
# [10] = Mus musculus, 48 h, 0.001 μg/ml
# [11] = 0.003 mg/kg/day po × 10, Table 10D
# [12] = 0.01 mg/kg/day po × 5, Table 10C
# [13] = 0.01 mg/kg/day po × 10, Table 10D
# [14] = 0.03 mg/kg/day po × 5, Table 10C
# [15] = 0.03 mg/kg/day po × 10, Table 10D
# [16] = 0.1 mg/kg/day po × 5, Table 10C
# [17] = 0.1 mg/kg/day po × 10, Table 10D
# [18] = 0.3 mg/kg/day po × 5, Table 10C
# [19] = 0.3 mg/kg/day po × 10, Table 10D
smiles,measurement,setting,value
CCCCCCCCCCCCC/C=C/C[C@@H](O)[C@H](O)[C@@](N)(CO)C(=O)O [Example 5],Cytotoxic activity,"[1]; 0.00001 μg/ml, C3H/HeN responder",9.8 LU/10^6
same,Cytotoxic activity,"[1]; 0.0001 μg/ml, BALB/c responder",9.2 LU/10^6
same,Cytotoxic activity,"[1]; 0.0001 μg/ml, C3H/HeN responder",8.0 LU/10^6
same,Cytotoxic activity,"[1]; 0.001 μg/ml, BALB/c responder",3.7 LU/10^6
same,Cytotoxic activity,"[1]; 0.001 μg/ml, C3H/HeN responder",6.8 LU/10^6
same,Cytotoxic activity,"[1]; 0.01 μg/ml, BALB/c responder",1.6 LU/10^6
same,Cytotoxic activity,"[1]; 0.01 μg/ml, C3H/HeN responder",< 0.5 LU/10^6
same,Cytotoxic activity,"[1]; 0.1 μg/ml, BALB/c responder",< 0.5 LU/10^6
same,Cytotoxic activity,"[1]; 0.1 μg/ml, C3H/HeN responder",< 0.5 LU/10^6
same,Cytotoxic activity,"[1]; 1 μg/ml, BALB/c responder",< 0.5 LU/10^6
same,Cytotoxic activity,"[1]; 1 μg/ml, C3H/HeN responder",< 0.5 LU/10^6
same,inhibition at 10 pg/mL,"[1]; Mus musculus, T-cell, 144 h, 0.00001 μg/ml, C3H/HeN responder",35.4%
same,inhibition at 0.0001 µg/mL,"[1]; Mus musculus, T-cell, 144 h, 0.0001 μg/ml, BALB/c responder",34.1%
same,inhibition at 0.0001 µg/mL,"[1]; Mus musculus, T-cell, 144 h, 0.0001 μg/ml, C3H/HeN responder",47.5%
same,inhibition at 0.001 µg/mL,"[1]; Mus musculus, T-cell, 144 h, 0.001 μg/ml, C3H/HeN responder",54.2%
same,inhibition at 0.01 µg/mL,"[1]; Mus musculus, T-cell, 144 h, 0.01 μg/ml, C3H/HeN responder",> 95%
same,inhibition at 0.1 µg/mL,"[1]; Mus musculus, T-cell, 144 h, 0.1 μg/ml, C3H/HeN responder",> 95%
same,inhibition at 1 µg/mL,"[1]; Mus musculus, T-cell, 144 h, 1 μg/ml, C3H/HeN responder",> 95%
same,inhibition at 0.001 µg/mL,"[1]; Mus musculus, T-cell, 144 h, 0.001 μg/ml, BALB/c responder",73.2%
same,inhibition at 0.01 µg/mL,"[1]; Mus musculus, T-cell, 144 h, 0.01 μg/ml, BALB/c responder",88.4%
same,inhibition at 0.1 µg/mL,"[1]; Mus musculus, T-cell, 144 h, 0.1 μg/ml, BALB/c responder",> 95%
same,inhibition at 1 µg/mL,"[1]; Mus musculus, T-cell, 144 h, 1 μg/ml, BALB/c responder",> 95%
same,"induction of the allo-reactive cytotoxic T cell (in words), BALB/c responder",[1]; Table 3A,markedly inhibited
same,"induction of the allo-reactive cytotoxic T cell (in words), C3H/HeN responder",[1]; Table 3B,suppressed
same,IL-2 activity,[2]; 0.0001 μg/ml,3.2 U/ml
same,IL-2 activity,[2]; 0.001 μg/ml,2.9 U/ml
same,IL-2 activity,[2]; 0.01 μg/ml,< 1.0 U/ml
same,IL-2 activity,[2]; 0.1 μg/ml,< 1.0 U/ml
same,IL-2 activity,[2]; 1 μg/ml,< 1.0 U/ml
same,inhibition at 0.0001 µg/mL,[2]; [9],28.9%
same,inhibition at 0.001 µg/mL,[2]; [10],35.6%
same,inhibition at 0.01 µg/mL,"[2]; Mus musculus, 48 h, 0.01 μg/ml",100%
same,inhibition at 0.1 µg/mL,"[2]; Mus musculus, 48 h, 0.1 μg/ml",100%
same,inhibition at 1 µg/mL,"[2]; Mus musculus, 48 h, 1 μg/ml",100%
same,IL-3 activity,[3]; 0.0001 μg/ml,32.7 U/ml
same,IL-3 activity,[3]; 0.001 μg/ml,19.2 U/ml
same,IL-3 activity,[3]; 0.01 μg/ml,11.5 U/ml
same,IL-3 activity,[3]; 0.1 μg/ml,7.9 U/ml
same,IL-3 activity,[3]; 1 μg/ml,7.9 U/ml
same,inhibition at 0.0001 µg/mL,[3]; [9],42.1%
same,inhibition at 0.001 µg/mL,[3]; [10],76.5%
same,inhibition at 0.01 µg/mL,"[3]; Mus musculus, 48 h, 0.01 μg/ml",96.2%
same,inhibition at 0.1 µg/mL,"[3]; Mus musculus, 48 h, 0.1 μg/ml",100%
same,inhibition at 1 µg/mL,"[3]; Mus musculus, 48 h, 1 μg/ml",100%
same,"Allogenic cell-specific antibody in serum, suppression",[4]; [11],28.3%
same,"Allogenic cell-specific antibody in serum, titer",[4]; [11],147 ± 43
same,"Allogenic cell-specific antibody in serum, suppression",[4]; [12],0%
same,"Allogenic cell-specific antibody in serum, titer",[4]; [12],318 ± 75
same,"Allogenic cell-specific antibody in serum, suppression",[4]; [13],45.4%
same,"Allogenic cell-specific antibody in serum, titer",[4]; [13],112 ± 66
same,"Allogenic cell-specific antibody in serum, suppression",[4]; [14],37.8%
same,"Allogenic cell-specific antibody in serum, titer",[4]; [14],186 ± 100
same,"Allogenic cell-specific antibody in serum, suppression",[4]; [15],40.0%
same,"Allogenic cell-specific antibody in serum, titer",[4]; [15],123 ± 43
same,"Allogenic cell-specific antibody in serum, suppression",[4]; [16],61.5%
same,"Allogenic cell-specific antibody in serum, titer",[4]; [16],115 ± 19
same,"Allogenic cell-specific antibody in serum, suppression",[4]; [17],71.2%
same,"Allogenic cell-specific antibody in serum, titer",[4]; [17],59 ± 38
same,"Allogenic cell-specific antibody in serum, suppression",[4]; [18],69.6%
same,"Allogenic cell-specific antibody in serum, titer",[4]; [18],91 ± 67
same,"Allogenic cell-specific antibody in serum, suppression",[4]; [19],76.1%
same,"Allogenic cell-specific antibody in serum, titer",[4]; [19],49 ± 26
same,"Allogenic cell-specific antibody in serum, suppression","[4]; 1 mg/kg/day po × 5, Table 10C",82.5%
same,"Allogenic cell-specific antibody in serum, titer","[4]; 1 mg/kg/day po × 5, Table 10C",52 ± 27
same,"Allogenic cell-specific antibody in serum, suppression","[4]; 1 mg/kg/day po × 10, Table 10D",76.6%
same,"Allogenic cell-specific antibody in serum, titer","[4]; 1 mg/kg/day po × 10, Table 10D",48 ± 37
same,allo-specific cytotoxic antibody production in serum (in words),"[4]; intraperitoneal or oral, Tables 10A to 10D",strongly suppresses allo-specific cytotoxic antibody production in serum
same,cytotoxicity at 72 h,[5],0%
same,Absorbancy,[6]; 0.1 μg/ml,0.695 ± 0.032
same,Absorbancy,[6]; 1 μg/ml,0.699 ± 0.044
same,Absorbancy,[6]; 10 μg/ml,0.684 ± 0.038
same,cytotoxicity at 72 h,[7]; 0.1 μg/ml,0%
same,cytotoxicity at 72 h,[7]; 1 μg/ml,5%
same,cytotoxicity at 72 h,[7]; 10 μg/ml,19.4%
same,Absorbancy,[8]; 0.1 μg/ml,1.505 ± 0.035
same,Absorbancy,[8]; 1 μg/ml,1.415 ± 0.010
same,Absorbancy,[8]; 10 μg/ml,1.201 ± 0.061
